The target in assay [1] is T1, PTPN3 PDZ (PTPN3) (Homo sapiens, UniProt P26045).
T1 sequence (P26045 505-597): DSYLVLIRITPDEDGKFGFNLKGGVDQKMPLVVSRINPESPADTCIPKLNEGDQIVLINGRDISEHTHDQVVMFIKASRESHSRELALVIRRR
The experiment in a line: Fluorescence polarization competition. It counts as binding.

Assay [2] has as its target T2, SCRIB PDZ1 (SCRIB-1) (Homo sapiens, UniProt Q14160). The experiment in a line: Fluorescence polarization competition, SCRIB-1. It counts as binding. Background: Polarisation of emitted light reports the rotation of a fluorescent probe.
The target of assay [3] is SNX27 PDZ (SNX27) (Rattus norvegicus, UniProt Q8K4V4). In words: Fluorescence polarization competition, SNX27. The assay is classed as binding.
The target in assay [4] is NHERF2 PDZ2 (N2P2) (Homo sapiens, UniProt Q15599). In words: Fluorescence polarization competition, N2P2.
Assay [5] deals with T3, DLG1 PDZ1 (DLG1–1) (Homo sapiens, UniProt Q12959). In words: Fluorescence polarization competition, DLG1–1. It counts as binding.
Assay [6] has as its target T4, MAGI1 PDZ2 (MAGI1–2) (Homo sapiens, UniProt Q96QZ7). In words: Fluorescence polarization competition. It counts as binding.
In assay [7] the target is T5, NHERF1 PDZ1 (N1P1) (Homo sapiens, UniProt O14745).
T5 sequence (O14745 1-139): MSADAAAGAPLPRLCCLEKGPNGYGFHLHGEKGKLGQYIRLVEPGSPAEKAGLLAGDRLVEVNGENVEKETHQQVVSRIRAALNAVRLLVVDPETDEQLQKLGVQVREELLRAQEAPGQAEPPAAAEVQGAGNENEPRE
In words: Fluorescence polarization competition, N1P1.

In assay [8] the target is T1, PTPN3 PDZ (PTPN3). The experiment in a line: Fluorescence polarization direct binding of reporter peptide, PTPN3.
Assay [9] addresses T3, DLG1 PDZ1 (DLG1–1). The experiment in a line: Fluorescence polarization direct binding of reporter peptide, DLG1–1.
The target in assay [10] is T4, MAGI1 PDZ2 (MAGI1–2). In words: Fluorescence polarization direct binding of reporter peptide, MAGI1–2.
The target of assay [11] is T2, SCRIB PDZ1 (SCRIB-1). In words: Fluorescence polarization direct binding of reporter peptide, SCRIB-1.
The target of assay [12] is T6, TIP-1 PDZ (Homo sapiens, UniProt O14907).
T6 sequence (O14907 9-120): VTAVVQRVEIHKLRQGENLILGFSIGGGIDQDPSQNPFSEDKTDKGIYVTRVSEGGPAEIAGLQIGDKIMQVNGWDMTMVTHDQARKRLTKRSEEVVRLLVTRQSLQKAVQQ
The experiment in a line: Fluorescence polarization competition, TIP-1 PDZ.

Assay [13] deals with CAL PDZ (Homo sapiens, UniProt Q9HD26). The experiment in a line: Fluorescence polarization competition, CAL PDZ.

Residues, ends and D or L forms follow the SMILES beside them.

For orientation: IC50 means the concentration at which inhibition is half-maximal. The term Ki denotes a dissociation constant, usually derived from enzyme kinetics or from competition with a known ligand. `CC(C)C[C@H](NC(=O)[C@H](CCC(N)=O)NC(=O)[C@@H](NC(=O)[C@H](CC(=O)O)NC(=O)[C@H](CCC(N)=O)NC(=O)[C@@H](NC(=O)[C@@H](NC(=O)[C@H](CCCNC(=N)N)NC(=O)[C@H](CO)NC(=O)[C@@H](N)CO)[C@@H](C)O)C(C)C)[C@@H](C)O)C(=O)O` [CFTRP1Q] (H-SSRTVQDTQL-OH): the IC50 was 51 ± 14 µM in [1] and 420 ± 210 µM in [6]. Moreover, the Ki was 150 ± 60 µM in assay [2]; 0.26 ± 0.05 µM in [3]; 3.1 ± 0.5 µM in assay [4]; 250 ± 150 µM in assay [5]; 25 ± 7 µM in assay [7].

`CC(C)C[C@H](NC(=O)[C@H](CCCNC(=N)N)NC(=O)[C@@H](NC(=O)[C@H](CC(=O)O)NC(=O)[C@H](CCCNC(=N)N)NC(=O)[C@@H](NC(=O)[C@@H](NC(=O)[C@H](CCCNC(=N)N)NC(=O)[C@H](CO)NC(=O)[C@@H](N)CO)[C@@H](C)O)C(C)C)[C@@H](C)O)C(=O)O` [CFTRP4R] (H-SSRTVRDTRL-OH): the IC50 in assay [1] came to 85 ± 39 µM; in assay [6], 460 ± 200 µM. Further, the Ki in [2] was found to be 370 ± 170 µM; in assay [3] it was 0.44 ± 0.06 µM; in [4], 1.7 ± 0.5 µM; in assay [5] it was 510 ± 230 µM; in assay [7] it was 6.9 ± 2.7 µM.

Regarding `CC(C)C[C@H](NC(=O)[C@H](CCCNC(=N)N)NC(=O)[C@@H](NC(=O)[C@H](CC(=O)O)NC(=O)[C@H](CCC(N)=O)NC(=O)[C@H](CCCNC(=N)N)NC(=O)[C@@H](NC(=O)[C@H](CCCNC(=N)N)NC(=O)[C@H](CO)NC(=O)[C@@H](N)CO)[C@@H](C)O)[C@@H](C)O)C(=O)O` [CFTRP5R] (H-SSRTRQDTRL-OH), the IC50 came out at 120 ± 20 µM in [1] and 220 ± 50 µM in assay [6]. Besides, the Ki in assay [2] was 50 ± 10 µM; in assay [3], 7.4 ± 4.5 µM; in assay [4], 0.49 ± 0.38 µM; in [5], 430 ± 200 µM; in [7], 1.8 ± 0.3 µM.

For orientation: Kd means a measure of binding affinity in units of concentration. A low value points to higher affinity. Take `CC(C)C[C@H](NC(=O)[C@H](CCC(N)=O)NC(=O)[C@@H](NC(=O)[C@H](CCC(=O)O)NC(=O)[C@H](CCCNC(=N)N)NC(=O)[C@H](CCCNC(=N)N)NC(=O)[C@@H](NC(=O)[C@H](CCCNC(=N)N)NC(=O)[C@H](CO)NC(=O)[C@H](CO)NC(=S)Nc1ccc2c(c1)C(=O)OC21c2ccc(O)cc2Oc2cc(O)ccc21)[C@@H](C)O)[C@@H](C)O)C(=O)O` [F*-HPV16 E6]: the Kd was 2 ± 1 µM in [8], 17 ± 4 µM in [9], 12 ± 4 µM in assay [10] and 5.1 ± 1.7 µM in assay [11].

Consider `CC(C)C[C@H](NC(=O)[C@H](CCC(N)=O)NC(=O)[C@@H](NC(=O)[C@H](CCC(=O)O)NC(=O)[C@H](CCCNC(=N)N)NC(=O)[C@H](CCCNC(=N)N)NC(=O)[C@@H](NC(=O)[C@H](CCCNC(=N)N)NC(=O)[C@H](CO)NC(=O)[C@@H](N)CO)[C@@H](C)O)[C@@H](C)O)C(=O)O` [HPV16 E6], for which the IC50 in assay [1] turned out to be 10.1 µM; in [6] it was 3.7 ± 0.1 µM. For the same molecule, the Ki in assay [2] amounted to 20 ± 7 µM; in assay [3], 1.5 ± 0.5 µM; in assay [4], 17 ± 6 µM; in [5] it was 22 ± 12 µM; in [7], 100 ± 50 µM; in [12], 11 ± 1 µM.

Take `CC(C)C[C@H](NC(=O)[C@H](CCCNC(=N)N)NC(=O)[C@@H](NC(=O)[C@H](CCC(=O)O)NC(=O)[C@H](CCCNC(=N)N)NC(=O)[C@H](CCCNC(=N)N)NC(=O)[C@@H](NC(=O)[C@H](CCCNC(=N)N)NC(=O)[C@H](CO)NC(=O)[C@@H](N)CO)[C@@H](C)O)[C@@H](C)O)C(=O)O` [HPVP1R] (H-SSRTRRETRL-OH): the IC50 in [1] was found to be 18 ± 1 µM; in assay [6], 5.2 ± 2.4 µM. Besides, the Ki was 13 ± 2 µM in assay [2]; 2.1 ± 0.7 µM in assay [3]; 6.9 ± 1.1 µM in [4]; 39 ± 11 µM in assay [5]; 8.8 ± 3.4 µM in assay [7]; 22 ± 5 µM in assay [12]. Moreover, in assay [13], the affinity, expressed as Ki, was 42 ± 10 µM.

For the molecule `CC(C)C[C@H](NC(=O)[C@H](CCC(N)=O)NC(=O)[C@@H](NC(=O)[C@H](CCC(=O)O)NC(=O)[C@H](CCC(N)=O)NC(=O)[C@H](CCCNC(=N)N)NC(=O)[C@@H](NC(=O)[C@H](CCCNC(=N)N)NC(=O)[C@H](CO)NC(=O)[C@@H](N)CO)[C@@H](C)O)[C@@H](C)O)C(=O)O` [HPVP4Q] (H-SSRTRQETQL-OH), the IC50 in assay [1] is 18 ± 5 µM; in assay [6], 3.8 ± 2.1 µM. Also, the Ki in assay [2] came out at 13 ± 2 µM; in assay [3] it was 0.51 ± 0.22 µM; in assay [4], 5.2 ± 0.6 µM; in assay [5] it was 23 ± 6 µM; in [7] it was 21 ± 7 µM; in [12], 34 ± 2 µM. Moreover, the Ki in [13] was 56 ± 6 µM.

Consider `CC(C)C[C@H](NC(=O)[C@H](CCC(N)=O)NC(=O)[C@@H](NC(=O)[C@H](CCC(=O)O)NC(=O)[C@H](CCCNC(=N)N)NC(=O)[C@@H](NC(=O)[C@@H](NC(=O)[C@H](CCCNC(=N)N)NC(=O)[C@H](CO)NC(=O)[C@@H](N)CO)[C@@H](C)O)C(C)C)[C@@H](C)O)C(=O)O` [HPVP5V] (H-SSRTVRETQL-OH), for which the IC50 in assay [1] was found to be 3.4 ± 0.3 µM; in [6], 4.4 ± 1.1 µM. The Ki in [2] is 4.5 ± 2.8 µM; in assay [3], 0.11 ± 0.03 µM; in assay [4] it was 7 ± 3.6 µM; in assay [5], 13 ± 4 µM; in assay [7], 67 ± 28 µM; in [12], 35 ± 4 µM. Further, the Ki in assay [13] worked out at 190 ± 10 µM.

The values are drawn from publication PMC9881875 (bioRxiv, 2023).
